Where two headings read alike, the source gives them in different places. Square brackets hold non-standard residues; d marks the D form. Peptide text beside a SMILES is read from it. * marks the point of attachment. Nle = CCCC[C@H](N)C(=O)O; Cbz = O=C(OCc1ccccc1)*
Key:
proteasome [1] = assay: Inventive proteasome sensor sensitivity (detection of proteasome inhibitors); assay type: cell-based; conditions: six hour after treatment as benchmark; broadest stated range
From the text: In determining sensitivity of his system, in the present application six hour after treating a cell with a proteasome modifying treatment is employed as a benchmark for sensitivity.

proteasome [2] = assay: HEK 293 cells transiently transfected with ZsGreen constructs, MFI by flow cytometry; assay type: cell-based; conditions: HEK 293, transient transfection
Method: (FIGS. 2A&B) To establish if the above proteins are substrate for degradation by the proteasome, HEK 293 cells were transiently transfected with the plasmids and the mean fluorescence intensity (MFI) of the cells was measured by flow cytometry 16 hours after transfection. […] To distinguish between these two possibilities, the transiently transfected cells were treated with ALLN, a well-characterized reversible inhibitor of proteasomal degradation.

proteasome [3] = assay: Stable HEK 293 clone expressing ZsGreend410, fluorescence with or without ALLN; assay type: cell-based
proteasome [4] = conditions: GFP-CL1 fusion; flow cytometry; cited from earlier work
proteasome [5] = conditions: GFP-MODC fragment fusion; at 20 hours; flow cytometry; cited from earlier work
proteasome [6] = conditions: GFP-Ubiquitin fusion; at 15 hours; flow cytometry (FACS); cited from earlier work

**Q.** With `CCCC[C@@H](C=O)NC(=O)[C@H](CC(C)C)NC(=O)[C@H](CC(C)C)NC(C)=O` [ALLN] (Ac-Leu-Leu-[Nle]-aldehyde) as the molecule, how does the “detection level of inhibitor by the inventive sensor” value (proteasome [1]) read?
**A.** 50 to 2500 nM

**Q.** And the “effect of treatment on fluorescence of ZsGreen expressing cells” value (proteasome [2])?
**A.** only marginally increases

**Q.** What about the “effect of treatment on fluorescence of pZsGreendl and pZsGreend410-transfected cells” value (proteasome [2]) of the same molecule?
**A.** increased in a time-dependent fashion

**Q.** And the “delay before the appearance of fluorescence” value (proteasome [3]; ZsGreend410-expressing clone, stable transfection)?
**A.** 3 h

**Q.** What about the “effect of treatment on fluorescence of cells stably expressing ZsGreend410” value (proteasome [3]; stable HEK 293 clone) of the same molecule?
**A.** sharply increases

**Q.** Which “detection level of inhibitor by the inventive sensor” value (proteasome [1]) does the source give for `CC[C@H](C)[C@H](NC(=O)[C@H]([C@@H](C)CC)N(C)C(C)=O)C(=O)N[C@H](C(=O)N[C@@H](CC(C)C)C(=O)[C@@]1(C)CO1)[C@@H](C)O` [Epoxomycin] here?
**A.** 1 to 30 nM

**Q.** What does the source list for `CC(=O)N[C@@H](CSC(=O)[C@]1([C@@H](O)C(C)C)NC(=O)[C@H](C)[C@@H]1O)C(=O)O` [Lactacystin]?
**A.** detection level of inhibitor by the inventive sensor (proteasome [1]): 10 to 500 nM; sensitivity achieved (inhibitor concentration) (proteasome [4]): 845 nM; sensitivity achieved (inhibitor concentration) (proteasome [5]): 2.5 µM

**Q.** With `CC(C)C[C@@H](C=O)NC(=O)[C@H](CC(C)C)NC(=O)[C@H](CC(C)C)NC(=O)OCc1ccccc1` [MG132] (Cbz-Leu-Leu-Leu-aldehyde) as the molecule, how does the “sensitivity achieved (inhibitor concentration)” value (proteasome [5]) read?
**A.** 2.5 µM

**Q.** For `CC(C)C[C@@H](/C=C/S(C)(=O)=O)NC(=O)[C@H](CC(C)C)NC(=O)[C@H](CC(C)C)NC(=O)OCc1ccccc1` [Z-L3-VS], which “sensitivity achieved (inhibitor concentration)” value (proteasome [6]) is on record?
**A.** 4 µM

— US7258981B2, “Sensitive proteasome sensor constructs and methods for their design and use” (Clontech Laboratories, Inc., priority 2003, dated 2007)
